# Target: JAK2 (JH1 domain-catalytic, Y1007F, Y1008F) kinase (Homo sapiens (Human), UniProt O60674, Y1007F/Y1008F)
# Assay: JAK2 JH1 Domain Binding Assay
# Conditions: qPCR readout
# In short: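 Competitive binding format: test compound, DNA-tagged JAK2 JH1 (Y1007F/Y1008F; HEK293-expressed NFkB fusion) and ligand-coated magnetic beads incubated 1 h at room temperature. Kinase retained on beads released with 0.5 μmol/L non-biotinylated ligand, then measured by qPCR.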
# Chain of JAK2 (JH1 domain-catalytic, Y1007F, Y1008F) kinase (O60674 849-1124 Y1007F/Y1008F): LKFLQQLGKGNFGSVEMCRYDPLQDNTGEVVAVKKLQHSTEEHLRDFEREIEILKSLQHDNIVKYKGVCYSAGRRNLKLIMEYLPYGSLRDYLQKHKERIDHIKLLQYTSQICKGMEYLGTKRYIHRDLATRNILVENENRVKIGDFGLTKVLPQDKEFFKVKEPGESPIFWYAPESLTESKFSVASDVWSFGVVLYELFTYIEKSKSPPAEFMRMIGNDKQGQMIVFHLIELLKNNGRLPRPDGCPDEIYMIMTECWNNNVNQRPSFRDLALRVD
row,Molecule,Kd [nM]
1,"COc1c[nH]c2ncc(N3CC[C@H]4[C@H](C3)OCCN4C(=O)Nc3cc(C(F)(F)F)cn(C)c3=O)nc12 [Example I-163-a, (4aS,8aS)-6-(7-methoxy-5H-pyrrolo[2,3-b]pyrazin-2-yl)-N-(1-methyl-2-oxo-5-(trifluoromethyl)-1,2-dihydropyridin-3-yl)octahydro-1H-pyrido[3,4-b][1,4]oxazine-1-carboxamide]",10 to 50
2,"CN(C(=O)Nc1cc(C(F)(F)F)cn(C)c1=O)[C@@H]1CCN(c2cnc3[nH]nc(OC4COC4)c3c2)C[C@@H]1F [Example I-101-a, 1-((3S,4R)-3-fluoro-1-(3-(oxetan-3-yloxy)-1H-pyrazolo[3,4-b]pyridin-5-yl)piperidin-4-yl)-1-methyl-3-(1-methyl-2-oxo-5-(trifluoromethyl)-1,2-dihydropyridin-3-yl)urea]",1000 to 5000
3,"CO[C@H]1CN(c2cnc3[nH]cc(C)c3n2)CC[C@@H]1N(C)C(=O)Nc1cc(C(F)(F)F)cn(C)c1=O [Example I-118-b, 1-((3S,4S)-3-methoxy-1-(7-methyl-5H-pyrrolo[2,3-b]pyrazin-2-yl)piperidin-4-yl)-1-methyl-3-(1-methyl-2-oxo-5-(trifluoromethyl)-1,2-dihydropyridin-3-yl)urea]",50 to 1000
4,"CN(C(=O)Nc1cc(C(F)(F)F)cn(C)c1=O)[C@H]1CCN(c2cnc3[nH]ccc3n2)C[C@@H]1F (single isomer, unassigned) [Example I-63-b]",< 10
5,"CC(=O)N1CCC(c2n[nH]c3ncc(N4CC[C@@H](N(C)C(=O)Nc5cc(C(F)(F)F)cn(C)c5=O)C(F)(F)C4)cc23)CC1 (single isomer, unassigned) [Example I-123-a]",< 10
6,"COCCOc1n[nH]c2ncc(N3CC[C@@H](N(C)C(=O)Nc4cc(C(F)(F)F)cn(C)c4=O)C[C@H]3C)cc12 [Example I-132-b, 1-((2R,4R)-1-(3-(2-methoxyethoxy)-1H-pyrazolo[3,4-b]pyridin-5-yl)-2-methylpiperidin-4-yl)-1-methyl-3-(1-methyl-2-oxo-5-(trifluoromethyl)-1,2-dihydropyridin-3-yl)urea]",10 to 50
7,"CN(C(=O)Nc1cc(C(F)(F)F)cn(C)c1=O)[C@H]1CCN(c2cnc3[nH]nc(OC[C@H]4COCCO4)c3c2)C[C@H]1F [Example I-102-b, 1-((3R,4S)-1-(3-(((R)-1,4-dioxan-2-yl)methoxy)-1H-pyrazolo[3,4-b]pyridin-5-yl)-3-fluoropiperidin-4-yl)-1-methyl-3-(1-methyl-2-oxo-5-(trifluoromethyl)-1,2-dihydropyridin-3-yl)urea]",< 10
8,"CN(C(=O)Nc1cc(C(F)(F)F)cn(C)c1=O)[C@@H]1CCN(c2cnccn2)CC1(F)F (single isomer, unassigned) [Example I-22-a]",10 to 50
9,"Cn1cc(C(F)(F)F)cc(NC(=O)N(C)[C@H]2CC[C@@H](c3cnc4[nH]ccc4n3)CC2)c1=O [Example I-120-b, cis-1-(4-(5H-pyrrolo[2,3-b]pyrazin-2-yl)cyclohexyl)-1-methyl-3-(1-methyl-2-oxo-5-(trifluoromethyl)-1,2-dihydropyridin-3-yl)urea]",< 10
10,"Cn1cc(C(F)(F)F)cc(NC(=O)N(C)[C@H]2CC[C@H](c3cnc4[nH]ccc4n3)CC2)c1=O [Example I-120-a, trans-1-(4-(5H-pyrrolo[2,3-b]pyrazin-2-yl)cyclohexyl)-1-methyl-3-(1-methyl-2-oxo-5-(trifluoromethyl)-1,2-dihydropyridin-3-yl)urea]",50 to 1000
11,"COCc1cc2nc(N3CC[C@H](N(C)C(=O)Nc4cc(C(F)(F)F)cn(C)c4=O)C(F)(F)C3)cnc2[nH]1 [Example I-110-b, (S)-1-(3,3-difluoro-1-(6-(methoxymethyl)-5H-pyrrolo[2,3-b]pyrazin-2-yl)piperidin-4-yl)-1-methyl-3-(1-methyl-2-oxo-5-(trifluoromethyl)-1,2-dihydropyridin-3-yl)urea]",< 10
12,"CO[C@H]1CN(c2cnc3[nH]nc(N(C)C)c3c2)CC[C@@H]1N(C)C(=O)Nc1cc(C(F)(F)F)cn(C)c1=O [Example I-115-b, 1-((3S,4S)-1-(3-(dimethylamino)-1H-pyrazolo[3,4-b]pyridin-5-yl)-3-methoxypiperidin-4-yl)-1-methyl-3-(1-methyl-2-oxo-5-(trifluoromethyl)-1,2-dihydropyridin-3-yl)urea]",50 to 1000
13,"COc1n[nH]c2ncc(N3CC[C@H](N(C)C(=O)Nc4cc(C(F)(F)F)cn(C)c4=O)[C@H](OC)C3)cc12 [Example I-106-b, 1-((3R,4S)-3-methoxy-1-(3-methoxy-1H-pyrazolo[3,4-b]pyridin-5-yl)piperidin-4-yl)-1-methyl-3-(1-methyl-2-oxo-5-(trifluoromethyl)-1,2-dihydropyridin-3-yl)urea]",< 10
14,"Cc1n[nH]c2ncc(N3CCC(N(C)C(=O)Nc4cc(C(F)(F)F)cn(C)c4=O)C(F)(F)C3)cc12 (single isomer, unassigned) [Example I-36-a, (R)- or (S)-1-(3,3-difluoro-1-(3-methyl-1H-pyrazolo[3,4-b]pyridin-5-yl)piperidin-4-yl)-1-methyl-3-(1-methyl-2-oxo-5-(trifluoromethyl)-1,2-dihydropyridin-3-yl)urea]",< 10
15,"CN1CCC(c2n[nH]c3ncc(N4CC[C@@H](N(C)C(=O)Nc5cc(C(F)(F)F)cn(C)c5=O)C(F)(F)C4)cc23)CC1 (single isomer, unassigned) [Example I-122-b]",< 10
16,"COc1n[nH]c2ncc(N3CC[C@@H](N(C)C(=O)Nc4cc(C(F)(F)F)cn(C)c4=O)[C@H](OC)C3)cc12 [Example I-108-a, 1-((3R,4R)-3-methoxy-1-(3-methoxy-1H-pyrazolo[3,4-b]pyridin-5-yl)piperidin-4-yl)-1-methyl-3-(1-methyl-2-oxo-5-(trifluoromethyl)-1,2-dihydropyridin-3-yl)urea]",10 to 50
17,"(S)-1-methyl-3-(1-methyl-2-oxo-5-(trifluoromethyl)-1,2-dihydropyridin-3-yl)-1-(3-(3-((tetrahydrofuran-3-yl)oxy)-1H-pyrazolo[3,4-b]pyridin-5-yl)bicyclo[1.1.1]pentan-1-yl)urea and (R)-1-methyl-3-(1-methyl-2-oxo-5-(trifluoromethyl)-1,2-dihydropyridin-3-yl)-1-(3-(3-((tetrahydrofuran-3-yl)oxy)-1H-pyrazolo[3,4-b]pyridin-5-yl)bicyclo[1.1.1]pentan-1-yl)urea [Example I-166-a]",50 to 1000

# The next lines start with the values.
row,Kd [nM],Molecule
1,< 10,"CN(C(=O)Nc1cc(C(F)(F)F)cn(C)c1=O)C1CCN(c2cnc3[nH]cc(C#N)c3n2)CC1 [Example I-59, 1-(1-(7-cyano-5H-pyrrolo[2,3-b]pyrazin-2-yl)piperidin-4-yl)-1-methyl-3-(1-methyl-2-oxo-5-(trifluoromethyl)-1,2-dihydropyridin-3-yl)urea]"
2,50 to 1000,"Cn1cc(C(F)(F)F)cc(NC(=O)OC2(C)CCN(c3cnc4[nH]ccc4n3)CC2)c1=O [Example I-71, 4-methyl-1-(5H-pyrrolo[2,3-b]pyrazin-2-yl)piperidin-4-yl (1-methyl-2-oxo-5-(trifluoromethyl)-1,2-dihydropyridin-3-yl)carbamate]"
3,< 10,"Cc1cc(NC(=O)N(C)C2CCN(c3cnc4[nH]ncc4c3)CC2)cc(C(F)(F)F)c1 [Example I-17, 1-(1-(1H-pyrazolo[3,4-b]pyridin-5-yl)piperidin-4-yl)-1-methyl-3-(3-methyl-5-(trifluoromethyl)phenyl)urea]"
4,< 10,"CN(C(=O)Nc1cc(C(F)(F)F)cn(C)c1=O)C1CCN(c2cnc3cn[nH]c3c2)CC1 [Example I-73, 1-(1-(1H-pyrazolo[4,3-b]pyridin-6-yl)piperidin-4-yl)-1-methyl-3-(1-methyl-2-oxo-5-(trifluoromethyl)-1,2-dihydropyridin-3-yl)urea]"
5,< 10,"CN(C(=O)Nc1cc(C(C)(C)C)n([C@@H]2CCOC2)n1)C1CCN(c2cnc3[nH]ncc3c2)CC1 [Example I-173, (R)-1-(1-(1H-pyrazolo[3,4-b]pyridin-5-yl)piperidin-4-yl)-3-(5-(tert-butyl)-1-(tetrahydrofuran-3-yl)-1H-pyrazol-3-yl)-1-methylurea]"
6,< 10,"CC(=O)Nc1cnc(N2CCC(N(C)C(=O)Nc3cc(C(F)(F)F)cc(C)n3)CC2)cn1 [Example I-23, N-(5-(4-(1-methyl-3-(6-methyl-4-(trifluoromethyl)pyridin-2-yl)ureido)piperidin-1-yl)pyrazin-2-yl)acetamide]"
7,< 10,"COc1c[nH]c2ncc([C@H]3CC[C@H](N(C)C(=O)Nc4cc(C(F)(F)F)cn(C)c4=O)CC3)nc12 [Example I-170, trans-1-(4-(7-methoxy-5H-pyrrolo[2,3-b]pyrazin-2-yl)cyclohexyl)-1-methyl-3-(1-methyl-2-oxo-5-(trifluoromethyl)-1,2-dihydropyridin-3-yl)urea]"
8,< 10,"Cc1cc(C(F)(F)F)cc(NC(=O)N(C)[C@@H]2CCN(c3cnc4[nH]ncc4c3)C[C@H]2F)n1 [Example I-177, 1-((3R,4R)-3-fluoro-1-(1H-pyrazolo[3,4-b]pyridin-5-yl)piperidin-4-yl)-1-methyl-3-(6-methyl-4-(trifluoromethyl)pyridin-2-yl)urea]"
9,50 to 1000,"CO[C@H]1C[C@@H](n2[nH]c3ncc(N4CCC(N(C)C(=O)Nc5cc(C(F)(F)F)cn(C)c5=O)CC4)cc3c2=O)C1 [Example I-130, 1-(1-(2-((1s,3s)-3-methoxycyclobutyl)-3-oxo-2,3-dihydro-1H-pyrazolo[3,4-b]pyridin-5-yl)piperidin-4-yl)-1-methyl-3-(1-methyl-2-oxo-5-(trifluoromethyl)-1,2-dihydropyridin-3-yl)urea]"
10,< 10,"COc1n[nH]c2ncc(N3CCC(N(C)C(=O)Nc4cc(C(F)(F)F)ccn4)CC3)cc12 [Example I-138, 1-(1-(3-methoxy-1H-pyrazolo[3,4-b]pyridin-5-yl)piperidin-4-yl)-1-methyl-3-(4-(trifluoromethyl)pyridin-2-yl)urea]"
11,< 10,"COc1n[nH]c2ncc(N3CCC(N(C)C(=O)Nc4cncc(C(F)(F)F)c4)CC3)cc12 [Example I-139, 1-(1-(3-methoxy-1H-pyrazolo[3,4-b]pyridin-5-yl)piperidin-4-yl)-1-methyl-3-(5-(trifluoromethyl)pyridin-3-yl)urea]"
